Results taken from patent US12371454B2, “Cyclic peptide compound having Kras inhibitory action” (priority 2019, dated 2025).
pIC50: −log10 of the molar value. Starred links: 1 amine or outer side, 2 acyl side, 3 side chain; linkers in the order of their positions; H or OH if unused. Positions of bridges follow the written chain, without caps; N, C: chain ends. Non-standard residues stand in square brackets, D forms with d. Residues, ends and D or L forms follow the SMILES beside them. *: point of attachment. hPhe(3-Cl-4-CF3) = N[C@@H](CCc1ccc(C(F)(F)F)c(Cl)c1)C(=O)O; hPhe(3-F,4-CF3) = N[C@@H](CCc1ccc(C(F)(F)F)c(F)c1)C(=O)O; NMedβ3hAla = C[C@H](CC(=O)[*:2])N(C)[*:1]; NMeNva(5,5-F2) = CN[C@@H](CCC(F)F)C(=O)O; NMeGly(cPent) = CN[C@H](C(=O)O)C1CCCC1; NMeCha = CN[C@@H](CC1CCCCC1)C(=O)O; NMehLeu = CN[C@@H](CCC(C)C)C(=O)O; NEtLeu = CCN[C@@H](CC(C)C)C(=O)O; NMeAhp(2) = CCCCC[C@H](NC)C(=O)O; NMeChg = CN[C@H](C(=O)O)C1CCCCC1; NMeI = CC[C@H](C)[C@H](NC)C(=O)O; NMeT = CN[C@H](C(=O)O)[C@@H](C)O; NMeD = CN[C@@H](CC(=O)O)C(=O)O; NMeL = CN[C@@H](CC(C)C)C(=O)O; NMehSer = CN[C@@H](CCO)C(=O)O; NMeNva = CCC[C@H](NC)C(=O)O; NMeV = CN[C@H](C(=O)O)C(C)C; d(β3hA) = C[C@@H](N)CC(=O)O; Azetidin(1-yl) = C1CN(*)C1; NMeAbu = CC[C@H](NC)C(=O)O; NMeS = CN[C@@H](CO)C(=O)O; Pip = O=C(O)[C@@H]1CCCCN1; Morpholide = C1CN(*)CCO1; NMeA = CN[C@@H](C)C(=O)O; Piperidide = C1CCN(*)CC1; Pyrrolidide = C1CCN(*)C1; Ac5c = NC1(C(=O)O)CCCC1; Aze = O=C(O)[C@@H]1CCN1; Cyclobutyl = C1CC(*)C1; Cyclopropyl = C1CC1*; Sar = CNCC(=O)O; Propyl = CCC*

tested on: Human pancreatic cancer cell line AsPC-1; assay: Measurement of AsPC-1 cell growth inhibition (AsPC-1 CGI); format: cell-based; details: 96 h
Procedure, shortened: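 AsPC-1 cells in 15% FBS RPMI-1640 were exposed to test compound for 96 hours at 37° C, with CellTiter-Glo as endpoint.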

Structure (SMILES)	pIC50
CC[C@H](C)[C@@H]1NC(=O)[C@H](CCOC)N(C)C(=O)C[C@@H](C(=O)N2CCCCC2)N(C)C(=O)[C@H](C(C)C)N(C)C(=O)C2(CCCC2)NC(=O)[C@@H]2CCCN2C(=O)[C@H](CCc2ccc(C(F)(F)F)c(Cl)c2)NC(=O)CN(C)C(=O)[C@H](CC2CCCCC2)N(C)C(=O)[C@@H]2CCN2C(=O)[C@H](C)N(C)C1=O [Compound 397] ([NMehSer](Me)I[NMeA][Aze][NMeCha][Sar][hPhe(3-Cl-4-CF3)]P[Ac5c][NMeV][NMeD]-Piperidide; lactam N-11)	6.30 to 7.00
CC[C@H](C)[C@@H]1NC(=O)[C@H](CC(C)C)N(C)C(=O)C[C@@H](C(=O)N2CCCCC2)N(C)C(=O)[C@H](C2CCCC2)N(C)C(=O)C2(CCCC2)NC(=O)[C@@H]2CCCN2C(=O)[C@H](CCc2ccc(C(F)(F)F)c(F)c2)NC(=O)CN(C)C(=O)[C@H](CC2CCCCC2)N(C)C(=O)[C@@H]2CCN2C(=O)[C@H](C)N(C)C1=O [Compound 563] ([NMeL]I[NMeA][Aze][NMeCha][Sar][hPhe(3-F,4-CF3)]P[Ac5c][NMeGly(cPent)][NMeD]-Piperidide; lactam N-11)	7.30 to 7.70
CC[C@H](C)[C@@H]1NC(=O)[C@H](CCC(F)F)N(C)C(=O)C[C@@H](C(=O)N2CCCCC2)N(C)C(=O)[C@H](C(C)C)N(C)C(=O)C2(CCCC2)NC(=O)[C@@H]2CCCN2C(=O)[C@H](CCc2ccc(C(F)(F)F)c(Cl)c2)NC(=O)CN(C)C(=O)[C@H](CC2CCCCC2)N(C)C(=O)[C@@H]2CCN2C(=O)[C@H](C)N(C)C1=O [Compound 1797] ([NMeNva(5,5-F2)]I[NMeA][Aze][NMeCha][Sar][hPhe(3-Cl-4-CF3)]P[Ac5c][NMeV][NMeD]-Piperidide; lactam N-11)	6.30 to 7.00
CCC[C@H]1C(=O)NC2(CCCC2)C(=O)N(C)[C@@H](C2CCCCC2)C(=O)N(C)[C@H](C(=O)N2CCCCC2)CC(=O)N(C)[C@@H](CC(C)C)C(=O)N[C@@H]([C@@H](C)CC)C(=O)N(C)CC(=O)N(C)CC(=O)N(C)[C@@H](CC2CCCCC2)C(=O)N(C)CC(=O)N[C@@H](CCc2ccc(C(F)(F)F)c(Cl)c2)C(=O)N1C [Compound 1005] ([NMeL]I[Sar][Sar][NMeCha][Sar][hPhe(3-Cl-4-CF3)][NMeNva][Ac5c][NMeChg][NMeD]-Piperidide; lactam N-11)	6.30 to 7.00
CC[C@H](C)[C@@H]1NC(=O)[C@H](CC(C)C)N(C)C(=O)C[C@@H](C(=O)N2CCCCC2)N(C)C(=O)[C@H](C(C)C)N(C)C(=O)C2(CCCC2)NC(=O)[C@@H]2CCCN2C(=O)[C@H](CCc2ccc(C(F)(F)F)c(Cl)c2)NC(=O)CN(C)C(=O)[C@H](CC2CCCCC2)N(C)C(=O)[C@@H]2CCN2C(=O)[C@H](CC)N(C)C1=O [Compound 1569] ([NMeL]I[NMeAbu][Aze][NMeCha][Sar][hPhe(3-Cl-4-CF3)]P[Ac5c][NMeV][NMeD]-Piperidide; lactam N-11)	6.30 to 7.00
CC[C@H](C)[C@@H]1NC(=O)[C@H](CC(C)C)N(C)C(=O)C[C@@H](C(=O)N2CCCCC2)N(C)C(=O)[C@H](C(C)C)N(C)C(=O)C2(CCCC2)NC(=O)[C@@H]2CCCN2C(=O)[C@H](CCc2ccc(C(F)(F)F)c(Cl)c2)NC(=O)CN(C)C(=O)[C@H]([C@@H](C)OC)N(C)C(=O)[C@@H]2CCN2C(=O)[C@H](C)N(C)C1=O [Compound 929] ([NMeL]I[NMeA][Aze][NMeT](Me)[Sar][hPhe(3-Cl-4-CF3)]P[Ac5c][NMeV][NMeD]-Piperidide; lactam N-11)	6.30 to 7.00
CC[C@H](C)[C@@H]1NC(=O)[C@H](COC2CC2)N(C)C(=O)C[C@@H](C(=O)N2CCCCC2)N(C)C(=O)[C@H](C(C)C)N(C)C(=O)C2(CCCC2)NC(=O)[C@@H]2CCCN2C(=O)[C@H](CCc2ccc(C(F)(F)F)c(Cl)c2)NC(=O)CN(C)C(=O)[C@H](CC2CCCCC2)N(C)C(=O)[C@@H]2CCN2C(=O)[C@H](C)N(C)C1=O [Compound 1764] ([NMeS](Cyclopropyl)I[NMeA][Aze][NMeCha][Sar][hPhe(3-Cl-4-CF3)]P[Ac5c][NMeV][NMeD]-Piperidide; lactam N-11)	6.30 to 7.00
CCCOC[C@H]1C(=O)N(C)CC(=O)N[C@@H](CCc2ccc(C(F)(F)F)c(Cl)c2)C(=O)N2CCC[C@H]2C(=O)NC2(CCCC2)C(=O)N(C)[C@@H](C2CCCCC2)C(=O)N(C)[C@H](C(=O)N2CCCCC2)CC(=O)N(C)[C@@H](CC(C)C)C(=O)N[C@@H]([C@@H](C)CC)C(=O)N(C)CC(=O)N(C)CC(=O)N1C [Compound 1805, (3S,9S,18S,21S,25S,28S,34S)-3-[2-[3-chloro-4-(trifluoromethyl)phenyl]ethyl]-28-cyclohexyl-21-isobutyl-7,10,13,16,22,26,29-heptamethyl-18-[(1S)-1-methylpropyl]-25-(piperidine-1-carbonyl)-9-(propoxymethyl)spiro[1,4,7,10,13,16,19,22,26,29,32-undecazabicyclo[32.3.0]heptatriacontane-31,1′-cyclopentane]-2,5,8,11,14,17,20,23,27,30,33-undecone] ([NMeL]I[Sar][Sar][NMeS](Propyl)[Sar][hPhe(3-Cl-4-CF3)]P[Ac5c][NMeChg][NMeD]-Piperidide; lactam N-11)	7.00 to 7.30
CC[C@H](C)[C@@H]1NC(=O)[C@H](CC(C)C)N(C)C(=O)C[C@@H](C)NC(=O)[C@H](C(C)C)N(C)C(=O)C2(CCCC2)NC(=O)[C@@H]2CCCN2C(=O)[C@H](CCc2ccc(C(F)(F)F)c(Cl)c2)NC(=O)CN(C)C(=O)[C@H](CC2CCCCC2)N(C)C(=O)[C@@H]2CCN2C(=O)[C@@H]2CCCCN2C1=O [Compound 416] (cyclo([Ac5c][NMeV][d(β3hA)][NMeL]I[Pip][Aze][NMeCha][Sar][hPhe(3-Cl-4-CF3)]P))	6.30 to 7.00
CC[C@H](C)[C@@H]1NC(=O)[C@H](CC(C)C)N(CC)C(=O)C[C@@H](C(=O)N2CCCCC2)N(C)C(=O)[C@H](C(C)C)N(C)C(=O)C2(CCCC2)NC(=O)[C@@H]2CCCN2C(=O)[C@H](CCc2ccc(C(F)(F)F)c(Cl)c2)NC(=O)CN(C)C(=O)[C@H](CC2CCCCC2)N(C)C(=O)[C@@H]2CCN2C(=O)[C@H](C)N(C)C1=O [Compound 667] ([NEtLeu]I[NMeA][Aze][NMeCha][Sar][hPhe(3-Cl-4-CF3)]P[Ac5c][NMeV][NMeD]-Piperidide; lactam N-11)	6.30 to 7.00
CCCCC[C@H]1C(=O)N[C@@H]([C@@H](C)CC)C(=O)N[C@@H](C)C(=O)N2CC[C@H]2C(=O)N(C)[C@@H](CC2CCCCC2)C(=O)N(C)CC(=O)N[C@@H](CCc2ccc(C(F)(F)F)c(Cl)c2)C(=O)N2CCC[C@H]2C(=O)NC2(CCCC2)C(=O)N(C)[C@@H](C2CCCC2)C(=O)N(C)[C@H](C(=O)N2CCC2)CC(=O)N1C [Compound 155] ([NMeAhp(2)]IA[Aze][NMeCha][Sar][hPhe(3-Cl-4-CF3)]P[Ac5c][NMeGly(cPent)][NMeD]-{Azetidin(1-yl)}; lactam N-11)	7.30 to 7.70
CC[C@H](C)[C@@H]1NC(=O)[C@H](CC(C)C)N(C)C(=O)C[C@@H](C(=O)N(C)C)N(C)C(=O)[C@H](C2CCCC2)N(C)C(=O)C2(CCCC2)NC(=O)[C@H](CC(=O)N2CCCC2)N(C)C(=O)[C@H](CCc2ccc(C(F)(F)F)c(Cl)c2)NC(=O)CN(C)C(=O)[C@H](CC2CCCCC2)N(C)C(=O)[C@@H]2CCN2C(=O)[C@H](C)N(C)C1=O [Compound 2097] ([NMeL]I[NMeA][Aze][NMeCha][Sar][hPhe(3-Cl-4-CF3)][NMeD](Pyrrolidide)[Ac5c][NMeGly(cPent)][NMeD]-NMe2; lactam N-11)	6.30 to 7.00
CC[C@H](C)[C@@H]1NC(=O)[C@H](CC(C)C)N(C)C(=O)C[C@@H](C(=O)N2CCCCC2)N(C)C(=O)[C@H]([C@@H](C)CC)N(C)C(=O)C2(CCCC2)NC(=O)[C@@H]2CCCN2C(=O)[C@H](CCc2ccc(C(F)(F)F)c(Cl)c2)NC(=O)CN(C)C(=O)[C@H](COC2CCC2)N(C)C(=O)[C@@H]2CCN2C(=O)[C@H](C)N(C)C1=O [Compound 885] ([NMeL]I[NMeA][Aze][NMeS](Cyclobutyl)[Sar][hPhe(3-Cl-4-CF3)]P[Ac5c][NMeI][NMeD]-Piperidide; lactam N-11)	7.30 to 7.70
CCCCC[C@H]1C(=O)N[C@@H]([C@@H](C)CC)C(=O)N[C@@H](C)C(=O)N2CC[C@H]2C(=O)N(C)[C@@H](CC2CCCCC2)C(=O)N(C)CC(=O)N[C@@H](CCc2ccc(C(F)(F)F)c(Cl)c2)C(=O)N2CCC[C@H]2C(=O)NC2(CCCC2)C(=O)N(C)[C@@H](C2CCCC2)C(=O)N(C)[C@H](C(=O)N2CCOCC2)CC(=O)N1C [Compound 263] ([NMeAhp(2)]IA[Aze][NMeCha][Sar][hPhe(3-Cl-4-CF3)]P[Ac5c][NMeGly(cPent)][NMeD]-Morpholide; lactam N-11)	7.30 to 7.70
CC[C@H](C)[C@@H]1NC(=O)[C@H](CC(C)C)N(CC)C(=O)C[C@@H](C(=O)N2CCOCC2)N(C)C(=O)[C@H](C2CCCC2)N(C)C(=O)C2(CCCC2)NC(=O)[C@@H]2CCCN2C(=O)[C@H](CCc2ccc(C(F)(F)F)c(Cl)c2)NC(=O)CN(C)C(=O)[C@H](CC2CCCCC2)N(C)C(=O)[C@@H]2CCN2C(=O)[C@H](C)NC1=O [Compound 1266] ([NEtLeu]IA[Aze][NMeCha][Sar][hPhe(3-Cl-4-CF3)]P[Ac5c][NMeGly(cPent)][NMeD]-Morpholide; lactam N-11)	6.30 to 7.00
CC[C@H](C)[C@@H]1NC(=O)[C@H](CCC(C)C)N(C)C(=O)C[C@@H](C(=O)N(C)C)N(C)C(=O)[C@H](C2CCCC2)N(C)C(=O)C2(CCCC2)NC(=O)[C@@H]2CCCN2C(=O)[C@H](CCc2ccc(C(F)(F)F)c(F)c2)NC(=O)CN(C)C(=O)[C@H](CC2CCCCC2)N(C)C(=O)[C@@H]2CCN2C(=O)[C@H](C)NC1=O [Compound 1292] ([NMehLeu]IA[Aze][NMeCha][Sar][hPhe(3-F,4-CF3)]P[Ac5c][NMeGly(cPent)][NMeD]-NMe2; lactam N-11)	7.30 to 7.70
CC[C@H](C)[C@@H]1NC(=O)[C@H](CC(C)C)N(C)C(=O)C[C@@H](C)N(C)C(=O)[C@H]([C@@H](C)CC)N(C)C(=O)C2(CCCC2)NC(=O)[C@@H]2CCCN2C(=O)[C@H](CCc2ccc(C(F)(F)F)c(F)c2)NC(=O)CN(C)C(=O)[C@H](CC2CCCCC2)N(C)C(=O)[C@@H]2CCN2C(=O)[C@H](C)N(C)C1=O [Compound 859] (cyclo([Ac5c][NMeI][NMedβ3hAla][NMeL]I[NMeA][Aze][NMeCha][Sar][hPhe(3-F,4-CF3)]P))	7.00 to 7.30
